Measured values reported in patent publication US5624924A, “Quinobenzothiazine antineoplastic agents” (priority 1994, dated 1997).
≈ marks a conversion by molar mass, not a printed value. Structures can show the parent of a compound that is named as a salt.

Columns and labels:
[1] = system: C-26 colon adenocarcinoma; experiment: In vivo activity against C-26 implanted subcutaneously (Example 44); design: species or system mouse
Description: (§1) The title compound of Example 37 above was tested against solid tumors in mice, using 1,3-bis(2-chloroethyl)-1-nitrosourea (BCNU) as a positive control. The tumor lines were M5076, an ovarian sarcoma implanted intraperitoneally (IP), and C-26, a colon adenocarcinoma, implanted intraperitoneally (IP) and subcutaneously (SC) in separate trials.
(§2) All drugs were administered in 5% aqueous dextrose or other suitable diluent. Drug efficacy was determined by prolonged survival times of the test animals or reduced tumor mass as compared to negative controls. Test groups consisted of 10 mice. Control groups consisted of 20 mice. Animals were of one sex and of similar weight. Prior to testing, the tumor cell lines were propagated in BALB/cj mice. Tumor implants were aliquots of a donor pool brei,
For the C-26 SC trial, the tumor was implanted SC into mice on day 0. The test compound was administered four times a day IP from day 1 to day 9 for a total of nine days. BCNU was administered four times a day on days 1, 5, and 9. The mean tumor masses were determined on day 11 and day 21, and the experiment terminated on day 60. The mean tumor mass (MTM) inhibition value of % MTM(T/C) was calculated, which value represents the ratio of treated to control group MTM's expressed as a percentage.

Aqueous solubility = format: physicochemical; settings: water
Text: The effect of peptidyl substitution on the solubility of the compounds of the invention was examined by dissolving samples thereof in water.

[2] = system: C-26 colon adenocarcinoma; experiment: In vivo activity against C-26 implanted intraperitoneally (Example 44); design: species or system mouse
Description: as §1, §2
(§3) In the IP trials, the mean survival time (MST) of the groups of mice was determined, not counting animals surviving at the conclusion of the trial, and the mean lifespan comparison value of % MST(T/C) calculated, which value represents the ratio of treated to control group MST's expressed as a percentage.
For C-26 colon adenocarcinoma, the tumor was implanted into CD2 F1 mice, IP and SC in separate trials. For the C-26 IP trial, the tumor was implanted IP on day 0. The test compound were administered four times a day IP from day 1 to day 9 for a total of nine days. BCNU was administered four times a day on days 1, 5 and 9.

M5076 ovarian sarcoma = experiment: In vivo activity against M5076 implanted intraperitoneally (Example 44); design: species or system mouse
Description: as §1, §2, §3
For M5076 ovarian sarcoma, the tumor was implanted IP into BDF1 mice on day 0. The test compound was administered four times a day IP from day 1 to day 9 for a total of nine days.

[3] = system: A549 human lung cancer cell line; experiment: In vitro cytotoxicity (MTT), A549; format: cell-based; settings: A549, 72 h, read-out: In Vitro Cytotoxicity (IC50), A549, Table 2, ADR: average of two tests
Description: (§4) Metabolic activity was measured by the cells' ability to reduce the tetrazolium dye, 3-(4,5-dimethylthiazol-2-yl)-2,5-diphenyltetrazolium bromide (MTT), to a quantifiable colored formasan derivative. Surviving cells reduce the MTT dye. The inhibitory concentrations of killing 50% of the cells (IC50 s) were calculated. Testing was in accord with the following protocol:
(§5) Test compounds and a reference antineoplastic agent, ADRIAMYCIN (doxorubicin hydrochloride), were dissolved in dimethyl sulfoxide (DMSO) and diluted, first with Earle's Balanced Salt Solution, followed by culture medium, to twice the highest concentration of the compound to be tested. From this concentrated stock, two-fold serial dilutions were prepared in 96-well microtiter trays, each well containing twice the desired final concentration of the compound. Each concentration was tested in triplicate and compared to triplicate drug-free controls.
(§6) The cells were grown in the same medium used for diluting the compounds. Adherent cells were harvested by trypsinization according to the following procedure:
(§7) After harvesting by trypsinization, viable cell counts were determined and cell density was adjusted to 25,000 cells/mL. Inoculum (0.1 mL) was then added to each well for a final concentration of 2,500 cells per well. Addition of the inoculum was used to dilute the test compounds to the desired concentration.
(§8) Microtiter trays were incubated for three days at 36° C. in a humidified atmosphere containing 5% carbon dioxide.
(§9) After three days, 20 microliters of 5 mg/mL MTT in phosphate-buffered solution were added to each well of the microtiter trays. The microtiter trays were then returned to the incubator for two to four hours to allow the surviving cells to reduce the dye. After this incubation, both the medium and the unreduced dye were removed by aspiration. DMSO was added to each well to dissolve the water-insoluble, colored end product of the dye reduction for spectrophotometric measurement at 570 nm.
(§10) The results obtained which clearly show the cytotoxicity of the compounds of Examples 5, 6, 7 and 8 against […] tumor cell lines A549, HCT-8, HT-29 and P388-D1, are illustrated in Table 1. (A549 is a human lung cancer cell line; HCT-8 is a human colon cancer cell line; HT-29 is a human colon cancer cell line; and P388-D1 is a mouse leukemia cell line.)

P388 ascitic leukemia = experiment: In vivo activity against systemic tumor P388; design: species or system mouse; settings: five days
Description: Prior to testing, P388 was propagated intraperitoneally in female DBA2 mice. The ascitic tumors were intraperitoneally injected in female B6 D2 F1 mice at a concentration of 10^6 cells per mouse. The mice were treated with antiumor agents administered once daily for five consecutive days, with the antineoplastic 5-fluorouracil used as a positive control.
All drugs were administered intraperitoneally in 5% aqueous dextrose or other suitable diluent. Drug efficacy was evaluated based on prolongation of mean survival time (MST). Improvement of MST was calculated as % MST(T/C), the percent ratio of mean survival times of test (T) versus control (C) mice. Compounds having % MST(T/C) values greater than 125 are considered to have significant activity. The antitumor activity of the two compounds in the P388 systemic leukemia model is illustrated in Table 3 below.

Lewis lung carcinoma = experiment: In vivo activity against Lewis lung carcinoma (subcutaneous); design: species or system mouse; settings: IP days 1-9, tumor weight day 14
Description: Compound A and the compound of Example 8 were also tested against solid tumors, namely Lewis lung carcinoma on the one hand and C-26 colon adenocarcinoma and M5076 ovadan sarcoma on the other. Lewis lung carcinoma was inoculated subcutaneously to flanks of mice on day 0. The compound being tested (Compound A) was administered intraperitoneally (IP) from day 1 to day 9 for a total of nine injections. Tumor weights were measured on day 14 and drug efficacy assessed based on reduction of mean tumor mass (MTM), expressed as the percent ratio of treated (T) to control (C) MTM's. Compounds having % MTM(T/C) values of less than or equal to 40 are considered to have significant activity. These values are shown below in Table 4.

[4] = system: HT-29 human colon cancer cell line; experiment: In vitro cytotoxicity (MTT), HT-29; format: cell-based; settings: HT-29, 72 h, read-out: In Vitro Cytotoxicity (IC50), HT-29, Table 2, ADR: average of two tests
Description: as §4, §5, §6, §7, §8, §9, §10

B16F10 mouse melanoma = experiment: In vitro cytotoxicity (MTT), B16F10; format: cell-based; settings: B16-F10, 72 h, read-out: In Vitro Cytotoxicity (IC50)
Description: as §4, §5, §6, §7, §8, §9
(§11) Compounds from Examples 4, 6, 8, 9 and 10 were additionally tested against human and murine tumor cell lines A549, HT-29, P388-D1, P388, P388-ADR(0.0), P388-ADR(0.1) and B16F109. (P388 is a mouse leukemia cell line similar to P388-D1, but animal-passaged; P388-ADR (0.0) is an ADRIAMYCIN-resistant variant of P388, the inoculum of which is grown in drug-free medium; P388-ADR (0.1) is an ADRIAMYCIN-resistant variant of P388, the inoculum of which is grown in medium with 0.1 mcg.ml ADRIAMYCIN; and B16F10 is a mouse melanoma.) The results are presented in Table 2; as shown in the table, the compounds of the present invention are effective cytotoxic agents even against the ADRIAMYCIN-resistant cell line P388-ADR.

[5] = system: P388-ADR(0.0), ADRIAMYCIN-resistant variant of P388; experiment: In vitro cytotoxicity (MTT), P388-ADR(0.0); format: cell-based; settings: Mus musculus, 72 h, inoculum grown in drug-free medium, Table 2
Description: as §4, §5, §6, §7, §8, §9, §11

[6] = system: P388 mouse leukemia cell line; experiment: In vitro cytotoxicity (MTT), P388; format: cell-based; settings: P388, 72 h, read-out: In Vitro Cytotoxicity (IC50)
Description: as §4, §5, §6, §7, §8, §9, §11

[7] = day 11, 10 mg/kg, compound 37 days 1-9, BCNU days 1, 5, 9
[8] = day 21, 10 mg/kg, compound 37 days 1-9, BCNU days 1, 5, 9
[9] = 10 mg/kg, compound 37 days 1-9, BCNU days 1, 5, 9

C[C@H](N)C(=O)N[C@@H](C)C(=O)NC1CCN(c2c(F)cc3c(=O)c(C(=O)O)cn4c3c2Oc2ccccc2-4)C1 (stereo partly drawn) [Example 37, 1-(3-Alanylalanylaminopyrrolidin-1-yl)-2-fluoro-4-oxo-4H-quino[2,3,4-i,j][1,4]benzoxazine-5-carboxylic acid hydrochloride]
% MTM(T/C) ([1]; day 11, 2.5 mg/kg): 97%
MTM ([1]; day 11, 2.5 mg/kg): 302 mg
% MTM(T/C) ([1]; day 11, 5 mg/kg): 66%
MTM ([1]; day 11, 5 mg/kg): 205 mg
% MTM(T/C) [1, 7]: 24%
MTM [1, 7]: 74 mg
% MTM(T/C) ([1]; day 11, 20 mg/kg): 0%
MTM ([1]; day 11, 20 mg/kg): 0 mg
% MTM(T/C) ([1]; day 21, 2.5 mg/kg): 79%
MTM ([1]; day 21, 2.5 mg/kg): 2617 mg
% MTM(T/C) ([1]; day 21, 5 mg/kg): 75%
MTM ([1]; day 21, 5 mg/kg): 2462 mg
% MTM(T/C) [1, 8]: 41%
MTM [1, 8]: 1336 mg
% MTM(T/C) ([1]; day 21, 20 mg/kg): 5%
MTM ([1]; day 21, 20 mg/kg): 169 mg
activity against tumor implanted subcutaneously ([1]; days 11 and 21, in words): significantly active
solubility (Aqueous solubility): 28.2 mg/mL
% MST(T/C) ([2]; 2.5 mg/kg IP days 1-9): 147%
MST ([2]; 2.5 mg/kg IP days 1-9): 30.3
% MST(T/C) ([2]; 5 mg/kg IP days 1-9): 174%
MST ([2]; 5 mg/kg IP days 1-9): 36.0
% MST(T/C) [2, 9]: 195%
MST [2, 9]: 40.2
test animals that survived the trial ([2]; 20 mg/kg (footnote a)): Three of ten test animals survived the trial
% MST(T/C) ([2]; 20 mg/kg IP days 1-9): 197%
MST ([2]; 20 mg/kg IP days 1-9): 40.7
improvement in survival time ([2]; C-26 IP, in words): significant improvement in survival time
test animals that survived the trial (M5076 ovarian sarcoma; 12.5 mg/kg (footnote b)): One of ten test animals survived the trial
% MST(T/C) (M5076 ovarian sarcoma; 12.5 mg/kg IP days 1-9): 215%
MST (M5076 ovarian sarcoma; 12.5 mg/kg IP days 1-9): 44.6
Toxicity due to the test compound (M5076 ovarian sarcoma; 25 mg/kg (footnote a)): Toxicity due to the test compound noted
% MST(T/C) (M5076 ovarian sarcoma; 25 mg/kg IP days 1-9): 45%
MST (M5076 ovarian sarcoma; 25 mg/kg IP days 1-9): 9.3
Toxicity due to the test compound (M5076 ovarian sarcoma; 50 mg/kg (footnote a)): Toxicity due to the test compound noted
% MST(T/C) (M5076 ovarian sarcoma; 50 mg/kg IP days 1-9): 21%
MST (M5076 ovarian sarcoma; 50 mg/kg IP days 1-9): 4.4
Toxicity due to the test compound (M5076 ovarian sarcoma; 100 mg/kg (footnote a)): Toxicity due to the test compound noted
% MST(T/C) (M5076 ovarian sarcoma; 100 mg/kg IP days 1-9): 15%
MST (M5076 ovarian sarcoma; 100 mg/kg IP days 1-9): 3.2
improvement in survival time (M5076 ovarian sarcoma; M5076 IP, in words): significant improvement in survival time

CCC[C@H](N)C(=O)N[C@@H](C)C(=O)NC1CCN(c2c(F)cc3c(=O)c(C(=O)O)cn4c3c2Oc2ccccc2-4)C1 (stereo partly drawn) [Example 40, 1-(3-Norvalylalanylaminopyrrolidin-1-yl)-2-fluoro-4-oxo-4H-quino[2,3,4-i,j][1,4]benzoxazine-5-carboxylic acid hydrochloride]
solubility (Aqueous solubility): > 47.8 mg/mL

NC1CCN(c2c(F)cc3c(=O)c(C(=O)O)cn4c3c2Oc2ccccc2-4)C1 (stereo not drawn) [Compound A, 1-(3-aminopyrrolidin-1-yl)-2-fluoro-4-oxo-4H-[2,3,4-i,j][1,4]benzoxazine-5-carboxylic acid]
solubility (Aqueous solubility): 8.8 mg/mL (≈ 23100 µM)
IC50 [3]: 0.26 µg/mL (≈ 0.682 µM)
% MST(T/C) (P388 ascitic leukemia; 6.25 mg/kg IP once daily): 160%
% MST(T/C) (P388 ascitic leukemia; 12.5 mg/kg IP once daily): 165%
% MST(T/C) (P388 ascitic leukemia; 25 mg/kg IP once daily): 170%
% MST(T/C) (P388 ascitic leukemia; 50 mg/kg IP once daily): 180%
Lewis Lung % MTM(T/C) (Lewis lung carcinoma; dose 6.25): 68%
Lewis Lung % MTM(T/C) (Lewis lung carcinoma; dose 12.5): 67%
Lewis Lung % MTM(T/C) (Lewis lung carcinoma; dose 25): 47%
Lewis Lung % MTM(T/C) (Lewis lung carcinoma; dose 50): 41%
IC50 [4]: 0.1 µg/mL (≈ 0.262 µM)
IC50 (B16F10 mouse melanoma): 0.021 µg/mL (≈ 0.0551 µM)
IC50 [5]: 0.12 µg/mL (≈ 0.315 µM)
IC50 [6]: 0.019 µg/mL (≈ 0.0498 µM)

CCC[C@H](NC(=O)[C@@H](N)CCC)C(=O)NC1CCN(c2c(F)cc3c(=O)c(C(=O)O)cn4c3c2Oc2ccccc2-4)C1 (stereo partly drawn) [Example 38, 1-(3-Norvalylnorvalylaminopyrrolidin-1-yl)-2-fluoro-4-oxo-4H-quino[2,3,4-i,j][1,4]benzoxazine-5-carboxylic acid hydrochloride]
solubility (Aqueous solubility): 11.1 mg/mL
